According to patent US6777204B1, “Receptor protein and method for diagnosing inflammatory diseases by using the same” (Asahi Kasei Kabushiki Kaisha, priority 1998, dated 2004):

Tests used:
[1] = target: T1, C5L2 protein (Homo sapiens, UniProt Q9P296); experiment: Ligand screening: binding of radio-labeled candidate compound to cell membrane fraction of 293 cells transformed with pcDNAC5L2 versus empty-vector control; conditions: final concentration of CGS21680 100 nM; 37° C. for 30 minutes; supernatant counted by liquid scintillation
T1 construct: Myc (C); His (C); expressed in transfected cells; host or cells: 293 cell line (ATCC CRL-1573), cell membrane fraction
Protocol: The transformants were incubated for 48 to 72 hours. The incubated cells were washed with PBS and, then, 1 ml/plate of EDTA-containing PBS (EDTA concentration: 0.01%) was added to the washed cells. Using Cell Scraper-L (catalog number: MS-93300) (manufactured and sold by Sumitomo Bakelite Co., Ltd., Japan), the cells were scraped off from the plate and washed twice with PBS. The washed cells were suspended in 0.5 ml of 25 mM HEPES solution (pH 7.4) containing Complete™ Protease Inhibitor Cocktail Set (manufactured and sold by Boehringer Mannheim Corporation, Germany), and the resultant cell suspension was transferred to a microtube. […]
The cell membrane fractions were prepared from the 293 cells (i.e., cells of 293 cell line) transformed with pcDNAC5L2 (i.e., C5L2 transformants) and the 293 cells transformed with pcDNA3.1/Myc-His(+)B vector (i.e., control) in substantially the same manner as in Example 5. […] Subsequently, the radioactivity of the prepared sample was measured by means of a scintillation counter (Beckman LS6000LL, manufactured and sold by Beckman Instruments, Inc., U.S.A.). The amount of the unbound candidate compound was determined from the measured radioactivity.

[2] = target: T2, C5L2 protein-expressing CHO cells (Homo sapiens, UniProt Q9P296); experiment: Screening of a substance which antagonizes a ligand: chemotaxis assay of CHO cells transformed with C5L2 toward LPS-administered rat serum; format: cell-based; conditions: NECA final concentration 100 μM in upper and lower compartments; LPS-administered rat serum as ligand source
T2 construct: Myc (C); His (C); expressed in transfected cells; host or cells: CHO cells (ATCC CCL-61), Geneticin-selected
Protocol: A chemotaxis Assay was Conducted with respect to the CHO cells transformed with C5L2. […] The chemotaxis of the cells in the absence of the antagonist candidate substance against a ligand was compared with that in the presence of the antagonist candidate substance against a ligand.

T2 sequence (Q9P296 whole entry): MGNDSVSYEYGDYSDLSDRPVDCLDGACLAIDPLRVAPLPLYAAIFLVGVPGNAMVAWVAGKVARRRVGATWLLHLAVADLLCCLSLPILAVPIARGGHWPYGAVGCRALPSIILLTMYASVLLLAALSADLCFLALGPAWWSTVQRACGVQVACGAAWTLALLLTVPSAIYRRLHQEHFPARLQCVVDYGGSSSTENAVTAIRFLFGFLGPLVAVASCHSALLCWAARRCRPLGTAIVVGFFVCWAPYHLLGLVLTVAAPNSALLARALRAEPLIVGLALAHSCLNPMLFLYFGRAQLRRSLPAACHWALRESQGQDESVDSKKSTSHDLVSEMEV
T1 sequence (Q9P296 whole entry): as above

SMILES	radioactivity of unbound candidate compound, C5L2 transformants versus control cells [1]	chemotaxis of the cells in the presence versus absence of the antagonist candidate substance [2]
CCNC(=O)[C@H]1O[C@@H](n2cnc3c(N)nc(NCCc4ccc(CCC(=O)O)cc4)nc32)[C@H](O)[C@@H]1O [CGS21680]	no difference in the radioactivity was observed	–
CCNC(=O)[C@H]1O[C@@H](n2cnc3c(N)ncnc32)[C@H](O)[C@@H]1O [NECA, 5′-(N-ethylcarboxyamide)adenosine]	–	no difference was observed
